Test results as given in PubChem BioAssay AID2060358 (Molecular Pharmacology Branch, DTP, NCI, 2025).

Tested on: 254851-301-R-J1-PDC spheroids, viability % test/control
Assay: Anticancer human tumor 254851-301-R-J1-PDC patient-derived colon carcinoma cell line growth inhibition [TAK]
Conditions: spheroids with HUVEC and MSC; for IC50: curve of first compound; for viability, T/C: stronger effect = lower value
How it was run: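 Spheroids of 60% malignant cells, 25% HUVEC and 15% hMSC were exposed to targeted agents combined with TAK-243 or ipatasertib. Concentrations started at or near clinical Cmax (10 microM if unknown) and descended in half-log steps.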

[1] = second compound 0.3 µM, first compound 0.0316 µM
[2] = second compound 0.3 µM, first compound 0.1 µM
[3] = second compound 0.3 µM, first compound 0.316 µM
[4] = second compound 0.3 µM, first compound 1 µM
[5] = second compound 0.949 µM, first compound 0.0316 µM
[6] = second compound 0.949 µM, first compound 0.1 µM
[7] = second compound 0.949 µM, first compound 0.316 µM
[8] = second compound 0.949 µM, first compound 1 µM
[9] = second compound 3 µM, first compound 0.0316 µM
[10] = second compound 3 µM, first compound 0.1 µM
[11] = second compound 3 µM, first compound 0.316 µM
[12] = second compound 3 µM, first compound 1 µM
[13] = second compound 9.49 µM, first compound 0.0316 µM
[14] = second compound 9.49 µM, first compound 0.1 µM
[15] = second compound 9.49 µM, first compound 0.316 µM
[16] = second compound 9.49 µM, first compound 1 µM
[17] = second compound 30 µM, first compound 0.0316 µM
[18] = second compound 30 µM, first compound 0.1 µM
[19] = second compound 30 µM, first compound 0.316 µM
[20] = second compound 30 µM, first compound 1 µM
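Further: spheroids exposed to drugs for seven days before viability readout.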
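Wherever viability, T/C is given: 100% = DMSO vehicle control viability.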

| Compound | IC50 (second compound 0.3 µM) [µM] | IC50 (second compound 0.949 µM) [µM] | IC50 (second compound 3 µM) [µM] | IC50 (second compound 9.49 µM) [µM] | IC50 (second compound 30 µM) [µM] | viability, T/C [1] [%] | viability, T/C [2] [%] | viability, T/C [3] [%] | viability, T/C [4] [%] | viability, T/C [5] [%] | viability, T/C [6] [%] | viability, T/C [7] [%] | viability, T/C [8] [%] | viability, T/C [9] [%] | viability, T/C [10] [%] | viability, T/C [11] [%] | viability, T/C [12] [%] | viability, T/C [13] [%] | viability, T/C [14] [%] | viability, T/C [15] [%] | also measured |
| --- | --- | --- | --- | --- | --- | --- | --- | --- | --- | --- | --- | --- | --- | --- | --- | --- | --- | --- | --- | --- | --- |
| COc1c(OCCCN2CCOCC2)ccc2c3n(c(=NC(=O)c4cnc(N)nc4)nc12)CCN3 + CC(C)NCC(C(=O)N1CCN(c2ncnc3c2C(C)CC3O)CC1)c1ccc(Cl)cc1 | > 1 | > 1 | > 1 | > 1 | > 1 | 88.2 | 78.1 | 63.7 | 67.6 | 92.5 | 76.3 | 60 | 65 | 95.5 | 82.7 | 76.8 | 67.3 | 101 | 82.4 | 75.8 | viability, T/C (second compound 0.3 µM, first compound 0.00316 µM): 114%; viability, T/C (second compound 0.3 µM, first compound 0.01 µM): 105%; viability, T/C (second compound 0.949 µM, first compound 0.00316 µM): 104%; viability, T/C (second compound 0.949 µM, first compound 0.01 µM): 106%; viability, T/C (second compound 3 µM, first compound 0.00316 µM): 111%; viability, T/C (second compound 3 µM, first compound 0.01 µM): 108%; viability, T/C (second compound 9.49 µM, first compound 0.00316 µM): 99.1%; viability, T/C (second compound 9.49 µM, first compound 0.01 µM): 100%; viability, T/C [16]: 74.4%; viability, T/C (second compound 30 µM, first compound 0.00316 µM): 81.5%; viability, T/C (second compound 30 µM, first compound 0.01 µM): 85.1%; viability, T/C [17]: 84.2%; viability, T/C [18]: 71.5%; viability, T/C [19]: 69.8%; viability, T/C [20]: 59.9% |
| Cc1nc(NC(=O)N2CCCC2C(N)=O)sc1-c1ccnc(C(C)(C)C(F)(F)F)c1 (stereo not given) + CC(C)NCC(C(=O)N1CCN(c2ncnc3c2C(C)CC3O)CC1)c1ccc(Cl)cc1 | > 10 | > 10 | > 10 | > 10 | > 10 | 117 | 102 | 109 | 89.4 | 106 | 114 | 93.6 | 99.5 | 113 | 101 | 98 | 94.6 | 105 | 106 | 101 | viability, T/C (second compound 0.3 µM, first compound 3.16 µM): 79.4%; viability, T/C (second compound 0.3 µM, first compound 10 µM): 73.4%; viability, T/C (second compound 0.949 µM, first compound 3.16 µM): 83.1%; viability, T/C (second compound 0.949 µM, first compound 10 µM): 69%; viability, T/C (second compound 3 µM, first compound 3.16 µM): 79.3%; viability, T/C (second compound 3 µM, first compound 10 µM): 73.9%; viability, T/C [16]: 97.3%; viability, T/C (second compound 9.49 µM, first compound 3.16 µM): 85%; viability, T/C (second compound 9.49 µM, first compound 10 µM): 74.8%; viability, T/C [17]: 82.5%; viability, T/C [18]: 99.3%; viability, T/C [19]: 88.4%; viability, T/C [20]: 79.4%; viability, T/C (second compound 30 µM, first compound 3.16 µM): 79.4%; viability, T/C (second compound 30 µM, first compound 10 µM): 69.4% |
